Source: patent publication US20230312551A1, “SALT OF 2-(SUBSTITUTED PYRIMIDINYL) THIAZOLE CARBOXAMIDE COMPOUND, AND COMPOSITION AND USE THEREOF” (SUNSHINE LAKE PHARMA CO., LTD., priority 2020, published 2023)
Blank lines part the entries; values can stand above or below the molecule they belong to.

Key:
[1] = Hygroscopicity test; format: physicochemical; conditions: 25° C. ± 1° C., RH 80% ± 2%, 24 hours
Description: 1) A dry stoppered glass weighing bottle was placed in a suitable constant temperature desiccator (RH 80% ± 2%) at 25° C. + 1° C. the day before, and accurately weighed (m1).
2) An appropriate amount of the test sample was taken and spread in the above weighing bottle. The thickness of the test sample was generally about 1 mm, and it was precisely weighed (m2).
3) The weighing bottle was opened and placed together with the bottle cap under the above constant temperature and humidity conditions for 24 hours.
4) The weighing bottle was closed with the bottle cap, and accurately weighed (m3). Calculate: weight gain % = (m3-m2) / (m2-m1) × 100%.
5) Judgment of hygroscopicity results (Chinese Pharmacopoeia 2015 Edition Appendix 9103 Guidelines for the hygroscopicity test of drugs, experimental conditions: 25° C.±1° C., 80%±2% relative humidity): […]

[2] = Pharmacokinetics test in Beagle dogs, oral capsules; format: in vivo; conditions: male Beagle dogs, oral capsule, 5 mg/kg
Description: The test samples were filled into capsules for oral administration.
Three 8-12 kg male Beagle dogs were taken orally administered capsules containing the test sample at a dose of 5 mg/kg, and blood was collected at time points of 0.25, 0.5, 1.0, 2.0, 4.0, 6.0, 8.0 and 24 h. Standard curve was plotted based on concentrations of the samples in a suitable range, the concentration of the test sample in the plasma sample was measured and quantified by AB SCIEX API4000 LC-MS / MS at MRM mode. Pharmacokinetic parameters were calculated according to drug concentration -time curve using a noncompartmental method by WinNonLin 6.3 software.

[3] = Stability test experiment A: suspended and stirred in water, XRPD; format: physicochemical; conditions: for Crystal form (XRPD) after stirring in water: suspended and stirred in water at room temperature for 24 h
Description: At room temperature, the test samples (50 mg) were added into EP tubes, water (1 mL) was added respectively. The mixture was suspended and stirred at room temperature for 24 h, then suction filtered, and dried for X-ray powder diffraction (XRPD) analysis and identification. Among them, the experimental results of phosphate crystal form A, phosphate crystal form B, phosphate crystal form C, phosphate crystal form G and phosphate crystal form H are shown in FIGS. 20-24.

[4] = Stability test experiment B: high temperature, high humidity and light tests; format: physicochemical; conditions: for Purity: HPLC
Description: (§1) (1) High temperature test: the test samples were taken into the flat weighing bottle, spread into a thin layer of ≤ 5 mm thick, and stored for 30 days at a humidity of 75% ± 5%, 40° C. ± 2° C. and/or 60° C. ± 2° C. On the 5th, 10th, and 30th days, samples were taken for detection according to the key stability inspection items: the color change of the sample was observed, the purity of the sample was determined by HPLC, and the crystal structure of the sample was determined by XRPD.
as §1, with “(2)” for “(1)”, “humidity” for “temperature”, “25° C., RH 90% ± 5% and/or RH” for “a humidity of”, “5%.” for “5%, 40° C. ± 2° C. and/or 60° C. ± 2° C.”
(3) Light test: the test samples were taken into the flat weighing bottle, spread into a thin layer of ≤ 5 mm thick, and placed in a light box (with an ultraviolet lamp) with an open mouth. The test samples were stored under the condition of illuminance of 4500 ± 5001x and ultraviolet light ≥ 0.7w/m^2 for 30 days. Samples were taken on the 5th, 10th and 30th days. The color change of the sample was observed, the purity of the sample was determined by HPLC, and the crystal structure of the sample was determined by XRPD.

[5] = Stability test experiment C: storage in PE bag and aluminum foil; format: physicochemical; conditions: for Purity: HPLC
Description: 1.0 g of the test samples were packaged in a single-layer PE bag and aluminum foil, and fasten with cable ties. 6 packs were prepared in total and put in a stable box (40° C. ± 2° C., RH 75% ± 5%, or 25° C. ± 2° C., RH 60% ± 10%). Test samples were taken at 0, 3, and 6 months for HPLC and XRPD detection, respectively.

[6] = High humidity (25° C., RH 90% ± 5%), 5 days
[7] = High humidity (25° C., RH 90% ± 5%), 10 days
[8] = High humidity (25° C., RH 90% ± 5%), 30 days
[9] = High temperature (60° C., RH 75%±5%), 5 days
[10] = High temperature (60° C., RH 75%±5%), 10 days
[11] = High temperature (60° C., RH 75%±5%), 30 days
[12] = 25° C. ± 2° C., RH 60% ±10%, 3 months
[13] = 25° C. ± 2° C., RH 60% ±10%, 6 months
[14] = 40° C. ± 2° C., RH 75% ±5%, 3 months
[15] = 40° C. ± 2° C., RH 75% ±5%, 6 months

SMILES: Cc1nc(-c2cnc(N3CCN(CCCc4c[nH]c5ccc(C#N)cc45)CC3)nc2)sc1C(N)=O [Example 2, 2-(2-(4-(3-(5-cyano-1H-indol-3-yl)propyl)piperazin-1-yl)pyrimidin-5-yl)-4-methylthiazol-5-carboxamide]
Conclusion (hygroscopicity feature) [1]: Slightly hygroscopicity (Less than 2% but not less than 0.2%)
The hygroscopicity gain [1]: 0.32%
Cmax ([2]; dog, plasma): 496 ng/mL
Tmax ([2]; dog, plasma): 1.67 h
AUClast [2]: 5240 h^∗ng/ml
Crystal structure after stirring in water ([3]; stirred in water at room temperature or under heating conditions): does not change
Crystal form (XRPD) after stirring in water ([3]; listed as phosphate crystal form A): crystal form did not change
Outward ([4]; 0 day): Light yellow solid
Purity ([4]; 0 day): 99.24%
Outward [4, 6]: Light yellow solid
Purity [4, 6]: 99.27%
Outward [4, 7]: Light yellow solid
Purity [4, 7]: 99.21%
Outward [4, 8]: Light yellow solid
Purity [4, 8]: 99.22%
Outward [4, 9]: Light yellow solid
Purity [4, 9]: 99.26%
Outward [4, 10]: Light yellow solid
Purity [4, 10]: 99.23%
Outward [4, 11]: Light yellow solid
Purity [4, 11]: 99.24%
Outward ([4]; Light, 5 days): Yellow solid
Purity ([4]; Light, 5 days): 99.25%
Outward ([4]; Light, 10 days): Yellow solid
Purity ([4]; Light, 10 days): 99.21%
Outward ([4]; Light, 30 days): Yellow solid
Purity ([4]; Light, 30 days): 99.10%
XRPD pattern ([4]; high temperature (60° C., RH 75% ± 5%), high humidity (25° C., RH 90% ± 5%) or light, 30 days): basically unchanged
Outward ([5]; 0 month): Light yellow solid
Purity ([5]; 0 month): 99.62%
Outward [5, 12]: Light yellow solid
Purity [5, 12]: 99.63%
Outward [5, 13]: Light yellow solid
Purity [5, 13]: 99.64%
Outward [5, 14]: Light yellow solid
Purity [5, 14]: 99.63%
Outward [5, 15]: Light yellow solid
Purity [5, 15]: 99.64%
Crystal structure (XRPD) ([5]; stored up to 6 months at 40° C./RH 75% or 25° C./RH 60% in PE bag and aluminum foil): have not changed

SMILES: Cc1nc(-c2cnc(N3CCN(CCCc4c[nH]c5ccc(C#N)cc45)CC3)nc2)sc1C(N)=O [Example 3, 2-(2-(4-(3-(5-cyano-1H-indol-3-yl)propyl)piperazin-1-yl)pyrimidin-5-yl)-4-methylthiazol-5-carboxamide]
Crystal form (XRPD) after stirring in water ([3]; listed as phosphate crystal form B): crystal form changed

SMILES: Cc1nc(-c2cnc(N3CCN(CCCc4c[nH]c5ccc(C#N)cc45)CC3)nc2)sc1C(N)=O [Example 4, 2-(2-(4-(3-(5-cyano-1H-indol-3-yl)propyl)piperazin-1-yl)pyrimidin-5-yl)-4-methylthiazol-5-carboxamide]
Crystal form (XRPD) after stirring in water ([3]; listed as phosphate crystal form C): crystal form changed

Second part, the molecule after the results:

Crystal form (XRPD) after stirring in water ([3]; listed as phosphate crystal form G): crystal form changed
SMILES: Cc1nc(-c2cnc(N3CCN(CCCc4c[nH]c5ccc(C#N)cc45)CC3)nc2)sc1C(N)=O [Example 5, 2-(2-(4-(3-(5-cyano-1H-indol-3-yl)propyl)piperazin-1-yl)pyrimidin-5-yl)-4-methylthiazol-5-carboxamide]

Crystal form (XRPD) after stirring in water ([3]; listed as phosphate crystal form H): crystal form changed
SMILES: Cc1nc(-c2cnc(N3CCN(CCCc4c[nH]c5ccc(C#N)cc45)CC3)nc2)sc1C(N)=O [Example 6, 2-(2-(4-(3-(5-cyano-1H-indol-3-yl)propyl)piperazin-1-yl)pyrimidin-5-yl)-4-methylthiazol-5-carboxamide]
